Article PMC8480901 (PLoS ONE, 2021)
Where “and” joins values, the source holds several entries; their conditions need not be identical. Identical values can stand only once.

System: human PBMCs
Experiment: LPS-induced cytokine and chemokine levels in human PBMC supernatant (Luminex, ELISA)
Assay type: cell-based
Settings: LPS-stimulated PBMC supernatant; for CCl2, Mean / CXCL1, Mean / CXCL2, Mean / MMP9, Mean: sample size 2; for CCl2, individual value / CXCL1, individual value / CXCL2, individual value / MMP9, individual value: single replicate

C[C@@H]1C[C@H]2[C@@H]3CCC4=CC(=O)C=C[C@]4(C)[C@@]3(F)[C@@H](O)C[C@]2(C)[C@@]1(O)C(=O)CO [Dexamethasone]
CCl2, % reduction (0.0003 µM): -4.68%
CXCL1 % reduction (0.0003 µM): -4%
CXCL2 % reduction (0.0003 µM): 4%
MMP9 % reduction (0.0003 µM): 3.74%
CCl2, Mean (0.0003 µM): 1323 pg/mL
CXCL1, Mean (0.0003 µM): 6192 pg/mL
CXCL2, Mean (0.0003 µM): 4849 pg/mL
MMP9, Mean (0.0003 µM): 2934 pg/mL
CCl2, individual value (0.0003 µM): 1383 pg/mL and 1264 pg/mL
CXCL1, individual value (0.0003 µM): 6146 pg/mL and 6238 pg/mL
CXCL2, individual value (0.0003 µM): 4762 pg/mL and 4936 pg/mL
MMP9, individual value (0.0003 µM): 2852 pg/mL and 3016 pg/mL
CCl2, % reduction (0.001 µM): 0.423%
CXCL1 % reduction (0.001 µM): 1.28%
CXCL2 % reduction (0.001 µM): 3%
MMP9 % reduction (0.001 µM): 7%
CCl2, Mean (0.001 µM): 1261 pg/mL
CXCL1, Mean (0.001 µM): 5877 pg/mL
CXCL2, Mean (0.001 µM): 4905 pg/mL
MMP9, Mean (0.001 µM): 2887 pg/mL
CCl2, individual value (0.001 µM): 1275 pg/mL and 1246 pg/mL
CXCL1, individual value (0.001 µM): 5806 pg/mL and 5947 pg/mL
CXCL2, individual value (0.001 µM): 4830 pg/mL and 4980 pg/mL
MMP9, individual value (0.001 µM): 2894 pg/mL and 2879 pg/mL
CCl2, % reduction (0.003 µM): 17%
CXCL1 % reduction (0.003 µM): 6%
CXCL2 % reduction (0.003 µM): 4%
MMP9 % reduction (0.003 µM): 16%
CCl2, Mean (0.003 µM): 1056 pg/mL
CXCL1, Mean (0.003 µM): 5588 pg/mL
CXCL2, Mean (0.003 µM): 4851 pg/mL
MMP9, Mean (0.003 µM): 2739 pg/mL
CCl2, individual value (0.003 µM): 1044 pg/mL and 1067 pg/mL
CXCL1, individual value (0.003 µM): 5506 pg/mL and 5671 pg/mL
CXCL2, individual value (0.003 µM): 4888 pg/mL and 4814 pg/mL
MMP9, individual value (0.003 µM): 2727 pg/mL and 2751 pg/mL
CCl2, % reduction (0.01 µM): 33%
CXCL1 % reduction (0.01 µM): 16%
CXCL2 % reduction (0.01 µM): 17%
MMP9 % reduction (0.01 µM): 23%
CCl2, Mean (0.01 µM): 860 pg/mL
CXCL1, Mean (0.01 µM): 5032 pg/mL
CXCL2, Mean (0.01 µM): 4217 pg/mL
MMP9, Mean (0.01 µM): 2621 pg/mL
CCl2, individual value (0.01 µM): 863 pg/mL and 858 pg/mL
CXCL1, individual value (0.01 µM): 4889 pg/mL and 5174 pg/mL
CXCL2, individual value (0.01 µM): 4342 pg/mL and 4092 pg/mL
MMP9, individual value (0.01 µM): 2587 pg/mL and 2655 pg/mL
CCl2, % reduction (0.03 µM): 46%
CXCL1 % reduction (0.03 µM): 25%
CXCL2 % reduction (0.03 µM): 30%
MMP9 % reduction (0.03 µM): 24%
CCl2, Mean (0.03 µM): 701 pg/mL
CXCL1, Mean (0.03 µM): 4474 pg/mL
CXCL2, Mean (0.03 µM): 3565 pg/mL
MMP9, Mean (0.03 µM): 2601 pg/mL
CCl2, individual value (0.03 µM): 757 pg/mL and 644 pg/mL
CXCL1, individual value (0.03 µM): 4471 pg/mL and 4477 pg/mL
CXCL2, individual value (0.03 µM): 3377 pg/mL and 3753 pg/mL
MMP9, individual value (0.03 µM): 2572 pg/mL and 2630 pg/mL
CCl2, % reduction (0.1 µM): 56%
CXCL1 % reduction (0.1 µM): 35%
CXCL2 % reduction (0.1 µM): 40%
MMP9 % reduction (0.1 µM): 39%
CCl2, Mean (0.1 µM): 584 pg/mL
CXCL1, Mean (0.1 µM): 3861 pg/mL
CXCL2, Mean (0.1 µM): 3024 pg/mL
MMP9, Mean (0.1 µM): 2364 pg/mL
CCl2, individual value (0.1 µM): 488 pg/mL and 679 pg/mL
CXCL1, individual value (0.1 µM): 3279 pg/mL and 4443 pg/mL
CXCL2, individual value (0.1 µM): 2644 pg/mL and 3404 pg/mL
MMP9, individual value (0.1 µM): 2111 pg/mL and 2616 pg/mL
CCl2, % reduction (0.3 µM): 55%
CXCL1 % reduction (0.3 µM): 32%
CXCL2 % reduction (0.3 µM): 49%
MMP9 % reduction (0.3 µM): 26%
CCl2, Mean (0.3 µM): 591 pg/mL
CXCL1, Mean (0.3 µM): 4087 pg/mL
CXCL2, Mean (0.3 µM): 2585 pg/mL
MMP9, Mean (0.3 µM): 2569 pg/mL
CCl2, individual value (0.3 µM): 580 pg/mL and 603 pg/mL
CXCL1, individual value (0.3 µM): 3996 pg/mL and 4178 pg/mL
CXCL2, individual value (0.3 µM): 2570 pg/mL and 2599 pg/mL
MMP9, individual value (0.3 µM): 2679 pg/mL and 2458 pg/mL
CCl2, % reduction (1 µM): 58%
CXCL1 % reduction (1 µM): 32%
CXCL2 % reduction (1 µM): 48%
MMP9 % reduction (1 µM): 46%
CCl2, Mean (1 µM): 551 pg/mL
CXCL1, Mean (1 µM): 4042 pg/mL
CXCL2, Mean (1 µM): 2659 pg/mL
MMP9, Mean (1 µM): 2244 pg/mL
CCl2, individual value (1 µM): 591 pg/mL and 510 pg/mL
CXCL1, individual value (1 µM): 4057 pg/mL and 4026 pg/mL
CXCL2, individual value (1 µM): 2573 pg/mL and 2746 pg/mL
MMP9, individual value (1 µM): 2290 pg/mL and 2198 pg/mL
